Where two headings read alike, the source gives them in different places.
Test system: WEEV replicon
Assay: microbe, parasite or virus in culture
Format: cell-based, Western equine encephalitis virus
Details: Western equine encephalitis virus; for activity at 2 µM: read-out: Activity (% control LUC) 2 μM; for activity at 10 µM: read-out: Activity (% control LUC) 10 μM
[1] = read-out: 50 μM (% control) Luc
[2] = read-out: Activity (% control LUC) 50 μM

Q: Which results are given for `O=C(NCCc1cccnc1)C1CCN(C(=O)c2cc3ccccc3n2Cc2ccc(Cl)cc2)CC1` [CCG 205433, 1-(1-(4-chlorobenzyl)-1H-indole-2-carbonyl)-N-(2-(pyridin-3-yl)ethyl)piperidine-4-carboxamide]?
A: IC50: 5.34 µM; activity at 50 µM [1]: 1.9%

Q: Which IC50 (read-out: Activity IC50 (μM)) does the source give for `O=C(c1cc2ccccc2n1Cc1ccc(Cl)cc1)N1CCC(C(=O)N2CCC[C@H]2CO)CC1` [CCG 204021, (S)-(1-(4-chlorobenzyl)-1H-indol-2-yl)(4-(2-(hydroxymethyl)pyrrolidine-1-carbonyl)piperidin-1-yl)methanone] here?
A: The IC50 was 32.1 µM.

Q: And the activity at 2 µM?
A: Its activity at 2 µM is 87.8%.

Q: And the activity at 10 µM?
A: Its activity at 10 µM is 77.9%.

Q: What about the activity at 50 µM [2] of the same molecule?
A: Its activity at 50 µM is 21.1%.

Q: With `O=C(c1cc2ccccc2n1Cc1ccc(F)cc1)N1CCC(CN2CCCCC2)CC1` [CCG 204055, (1-(4-fluorobenzyl)-1H-indol-2-yl)(4-(piperidin-1-ylmethyl)piperidin-1-yl)methanone] as the molecule, how does the IC50 (read-out: Activity IC50 (μM)) read?
A: The IC50 was 13.3 µM.

Q: What about the activity at 2 µM of the same molecule?
A: The activity at 2 µM was 89.7%.

Q: What about the activity at 10 µM of the same molecule?
A: The activity at 10 µM was 69.9%.

Q: What about the activity at 50 µM [2] of the same molecule?
A: The activity at 50 µM was 40%.

Q: Which IC50 (read-out: Activity IC50 (μM)) does the source give for `O=C(c1cc2ccccc2n1Cc1ccc(F)cc1)N1CCC(C(=O)N2CCCCC2)CC1` [CCG 203945, (1-(4-fluorobenzyl)-1H-indol-2-yl)(4-(piperidine-1-carbonyl)piperidin-1-yl)methanone] here?
A: Its IC50 is 20 µM.

Q: What about the activity at 2 µM of the same molecule?
A: Its activity at 2 µM is 85%.

Q: What about the activity at 10 µM of the same molecule?
A: Its activity at 10 µM is 64.4%.

Q: What about the activity at 50 µM [2] of the same molecule?
A: Its activity at 50 µM is 21.3%.

Q: For `O=C(NCCc1ccc(Cl)cc1)C1CCN(C(=O)c2cc3ccccc3n2Cc2ccc(Cl)cc2)CC1` [CCG 206400, 1-(1-(4-chlorobenzyl)-1H-indole-2-carbonyl)-N-(4-chlorophenethyl)piperidine-4-carboxamide], which IC50 is on record?
A: Its IC50 is 7.45 µM.

Q: And the activity at 50 µM [1]?
A: Its activity at 50 µM is 28.6%.

Q: `Cn1cnc(CNC(=O)C2CCN(C(=O)c3cc4ccccc4n3Cc3ccc(Cl)cc3)CC2)c1` [CCG 205455, 1-(1-(4-chlorobenzyl)-1H-indole-2-carbonyl)-N-((1-methyl-1H-imidazol-4-yl)methyl)piperidine-4-carboxamide] was tested. Which activity at 50 µM [1] did it give?
A: The activity at 50 µM was 50.8%.

Q: For `CC(=O)n1c(C(=O)N2CCC(C(=O)N(C)Cc3ccccc3)CC2)cc2ccccc21` [CCG 206333, 1-(1-acetyl-1H-indole-2-carbonyl)-N-benzyl-N-methylpiperidine-4-carboxamide], which activity at 50 µM [1] is on record?
A: The activity at 50 µM was 58.5%.

Q: What does the source list for `O=C(NCc1cccc(Cl)c1)C1CCN(C(=O)c2cc3ccccc3n2Cc2ccc(Cl)cc2)CC1` [CCG 204043, N-(3-chlorobenzyl)-1-(1-(4-chlorobenzyl)-1H-indole-2-carbonyl)piperidine-4-carboxamide]?
A: IC50 (read-out: Activity IC50 (μM)): 28.5 µM; activity at 2 µM: 78.6%; activity at 10 µM: 60.9%; activity at 50 µM [2]: 53.6%

Q: What does the source list for `CN(Cc1ccccc1)C(=O)C1CCN(C(=O)c2cc3ccccc3n2Cc2ccc(Cl)cc2)CC1` [CCG 203930, N-benzyl-1-(1-(4-chlorobenzyl)-1H-indole-2-carbonyl)-N-methylpiperidine-4-carboxamide]?
A: IC50 (read-out: Activity IC50 (μM)): 18.6 µM; activity at 2 µM: 110%; activity at 10 µM: 59.5%; activity at 50 µM [2]: 38%

Q: How did the activity at 50 µM [1] turn out when `CN1CCC(CNC(=O)C2CCN(C(=O)c3cc4ccccc4n3Cc3ccc(Cl)cc3)CC2)CC1` [CCG 205429, 1-(1-(4-chlorobenzyl)-1H-indole-2-carbonyl)-N-((1-methylpiperidin-4-yl)methyl)piperidine-4-carboxamide] was run?
A: The activity at 50 µM was 26.8%.

Q: Which results are given for `O=C(c1cc2ccccc2n1Cc1ccc(Cl)cc1)N1CCC(CN2CCCCC2)CC1` [CCG 205476, (1-(4-chlorobenzyl)-1H-indol-2-yl)(4-(piperidin-1-ylmethyl)piperidin-1-yl)methanone]?
A: IC50: 9.8 µM; activity at 50 µM [1]: 6.5%

Q: Which IC50 (read-out: Activity IC50 (μM)) does the source give for `O=C(c1cc2ccccc2n1Cc1ccc(F)cc1)N1CCN(Cc2ccccc2)CC1` [CCG 203942, (4-benzylpiperazin-1-yl)(1-(4-fluorobenzyl)-1H-indol-2-yl)methanone] here?
A: The IC50 was 12.8 µM.

Q: What about the activity at 2 µM of the same molecule?
A: The activity at 2 µM was 116%.

Q: And the activity at 10 µM?
A: Its activity at 10 µM is 73.8%.

Q: And the activity at 50 µM [2]?
A: The activity at 50 µM was 48.9%.

Q: What does the source list for `CN(Cc1ccccc1)C(=O)C1CCN(C(=O)c2cc3ccccc3n2Cc2ccc(C#N)cc2)CC1` [CCG 206330, N-benzyl-1-(1-(4-cyanobenzyl)-1H-indole-2-carbonyl)-N-methylpiperidine-4-carboxamide]?
A: IC50: 79.3 µM; activity at 50 µM [1]: 45.2%

Q: `Cc1ccc(CCNC(=O)C2CCN(C(=O)c3cc4ccccc4n3Cc3ccc(Cl)cc3)CC2)cc1` [CCG 102518, 1-(1-(4-chlorobenzyl)-1H-indole-2-carbonyl)-N-(4-methylphenethyl)piperidine-4-carboxamide] was tested. Which IC50 (read-out: Activity IC50 (μM)) did it give?
A: Its IC50 is 4.2 µM.

Q: And the activity at 2 µM?
A: Its activity at 2 µM is 83%.

Q: And the activity at 10 µM?
A: Its activity at 10 µM is 33.8%.

Q: What about the activity at 50 µM [2] of the same molecule?
A: Its activity at 50 µM is 32.2%.

Q: How did the IC50 turn out when `Cc1ccc(CCNCC2CCN(C(=O)c3cc4ccccc4n3Cc3ccc(F)cc3)CC2)cc1` [CCG 206486, (1-(4-fluorobenzyl)-1H-indol-2-yl)(4-(((4-methylphenethyl)amino)methyl)piperidin-1-yl)methanone] was run?
A: Its IC50 is 6.1 µM.

Q: What about the activity at 50 µM [1] of the same molecule?
A: Its activity at 50 µM is 0%.

Q: With `O=C(NCCc1ccncc1)C1CCN(C(=O)c2cccn2Cc2ccc(Cl)cc2)CC1` [CCG 206381, 1-(1-(4-chlorobenzyl)-1H-pyrrole-2-carbonyl)-N-(2-(pyridin-4-yl)ethyl)piperidine-4-carboxamide] as the molecule, how does the IC50 read?
A: Its IC50 is 0.68 µM.

Q: And the activity at 50 µM [1]?
A: The activity at 50 µM was 9.9%.

Q: Which IC50 does the source give for `O=C(c1cc2ccccc2n1Cc1ccc(Cl)cc1)N1CCN(Cc2ccccc2)CC1` [CCG 206327, (4-benzylpiperazin-1-yl)(1-(4-chlorobenzyl)-1H-indol-2-yl)methanone] here?
A: The IC50 was 11.5 µM.

Q: What about the activity at 50 µM [1] of the same molecule?
A: The activity at 50 µM was 33.3%.

Q: How did the IC50 turn out when `Cn1ccc(CNC(=O)C2CCN(C(=O)c3cc4ccccc4n3Cc3ccc(Cl)cc3)CC2)n1` [CCG 205454, 1-(1-(4-chlorobenzyl)-1H-indole-2-carbonyl)-N-((1-methyl-1H-pyrazol-3-yl)methyl)piperidine-4-carboxamide] was run?
A: The IC50 was 76.9 µM.

Q: And the activity at 50 µM [1]?
A: The activity at 50 µM was 46.6%.

Q: `COCCn1c(C(=O)N2CCC(C(=O)N(C)Cc3ccccc3)CC2)cc2ccccc21` [CCG 206331, N-benzyl-1-(1-(2-methoxyethyl)-1H-indole-2-carbonyl)-N-methylpiperidine-4-carboxamide] was tested. Which activity at 50 µM [1] did it give?
A: Its activity at 50 µM is 74.5%.

Q: Which IC50 (read-out: Activity IC50 (μM)) does the source give for `CN1CCN(C(=O)C2CCN(C(=O)c3cc4ccccc4n3Cc3ccc(Cl)cc3)CC2)CC1` [CCG 204023, (1-(4-chlorobenzyl)-1H-indol-2-yl)(4-(4-methylpiperazine-1-carbonyl)piperidin-1-yl)methanone] here?
A: The IC50 was 21.4 µM.

Q: What about the activity at 2 µM of the same molecule?
A: The activity at 2 µM was 99%.

Q: And the activity at 10 µM?
A: Its activity at 10 µM is 67.4%.

Q: What about the activity at 50 µM [2] of the same molecule?
A: The activity at 50 µM was 6%.

Q: With `O=C(NCCc1ccccc1)C1CCN(C(=O)c2cc3ccccc3n2Cc2ccc(Cl)cc2)CC1` [CCG 206397, 1-(1-(4-chlorobenzyl)-1H-indole-2-carbonyl)-N-phenethylpiperidine-4-carboxamide] as the molecule, how does the IC50 read?
A: Its IC50 is 15.2 µM.

Q: What about the activity at 50 µM [1] of the same molecule?
A: Its activity at 50 µM is 40.2%.

Q: Which activity at 50 µM [1] does the source give for `CN(Cc1ccccc1)C(=O)C1CCN(C(=O)c2cc3ccccc3n2C)CC1` [CCG 205428, N-benzyl-N-methyl-1-(1-methyl-1H-indole-2-carbonyl)piperidine-4-carboxamide] here?
A: Its activity at 50 µM is 77.2%.

Q: `O=C(NCCc1ccc(F)cc1)C1CCN(C(=O)c2cc3ccccc3n2Cc2ccc(Cl)cc2)CC1` [CCG 206396, 1-(1-(4-chlorobenzyl)-1H-indole-2-carbonyl)-N-(4-fluorophenethyl)piperidine-4-carboxamide] was tested. Which IC50 did it give?
A: Its IC50 is 10.6 µM.

Q: What about the activity at 50 µM [1] of the same molecule?
A: Its activity at 50 µM is 34.9%.

Q: How did the IC50 (read-out: Activity IC50 (μM)) turn out when `O=C(c1cc2ccccc2n1Cc1ccc(F)cc1)N1CCC(C(O)c2ccccc2)CC1` (stereo not shown) [CCG 204056, (1-(4-fluorobenzyl)-1H-indol-2-yl)(4-(hydroxy(phenyl)methyl)piperidin-1-yl)methanone] was run?
A: The IC50 was 16 µM.

Q: What about the activity at 2 µM of the same molecule?
A: Its activity at 2 µM is 99.3%.

Q: And the activity at 10 µM?
A: The activity at 10 µM was 71.7%.

Q: What about the activity at 50 µM [2] of the same molecule?
A: The activity at 50 µM was 8.3%.
